The results in this text go back to patent US20050059585A1, “Methionine aminopeptidase-2 inhibitors and methods of use thereof” (Praecis Pharmaceuticals Inc., priority 2000, published 2005).

The subject of assay [1] is bovine aortic endothelial cell. The assay can be described thus: bovine aortic endothelial cell growth assay (Baec assay). The format is cell-based. Here is the method:
The angiogenesis inhibitor compounds of the invention were tested for their ability to modulate human endothelial cell growth and for their ability to modulate the activity of MetAP2. The MetAP2 enzyme assay was performed essentially as described in Turk, B. et al. (1999) Chem. & Bio. 6: 823-833, the entire contents of which are incorporated herein by reference. The bovine aortic endothelial cell growth assay (Baec assay) was performed essentially as described in Turk, B. et al. (supra), the entire contents of which are incorporated herein by reference.

Assay [2] has as its system human umbilical vein endothelial cells (HUVEC). The assay can be described thus: human endothelial cell growth assay (Huvec assay). Format: cell-based. The method, then: For the human endothelial cell growth assay, human umbilical vein endothelial cells (HUVEC) were maintained in Clonetics endothelial growth medium (EGM) in a 37° C. humidified incubator. Cells were detached with trypsin and pelleted by centrifugation at 300×g for 5 minutes at room temperature. HUVEC were added to 96-well plates at 5,000 cells/well. After incubating for 6 hours, the medium was replaced with 0.2 ml fresh EGM supplemented with 0.5 nM bFGF and the desired concentration of test angiogenesis inhibitor compound. Test angiogenesis inhibitor compounds were initially dissolved in ethanol at stock concentrations of either 10 mM or 0.1 mM, and subsequently diluted in EGM to obtain concentrations from […] to 10 μM. After 48 hours at 37° C., the medium was replaced with fresh bFGF-supplemented EGM and test angiogenesis inhibitor compound. Following incubation for an additional 48 hours at 37° C. MTT (3-[4,5-dimethylthiazol-2-yl]-2,5-diphenyl-tetrazolium bromide) was added to 1 mg/ml. After 2-4 hours at 37° C. the medium was replaced with 0.1 ml/well isopropanol. The plates were placed on a shaker for 15 minutes at room temperature and analyzed in a Labsystems Multiskan plate spectrophotometer at an optical density of 570 nm.

A further assay addresses T1, MetAP2 (Homo sapiens, UniProt P50579).
T1 construct: made in house; host or cells: insect cells
In words: MetAP2 enzyme assay. Format: biochemical. The method, then:
Finally, the ability of the angiogenesis inhibitor compounds of the invention to modulate the activity of MetAP2 may be tested as follows.. Recombinant human MetAP2 may be expressed and purified from insect cells as described in Li and Chang, (1996) Biochem. Biophys. Res. Commun. 227:152-159. Various amounts of angiogenesis inhibitor compound is then added to buffer H (10 mM Hepes, pH 7.35, 100 mM KCl, 10% glycerol, and […]) containing lnM purified recombinant human MetAP2 and incubated at 37° C. for 30 minutes. To start the enzymatic reaction a peptide containing a methionine residue, e.g., Met-Gly-Met, is added to the reaction mixture (to a concentration of 1 mM). Released methionine is subsequently quantified at different time points (e.g., at 0, 2, 3, and 5 minutes) using the method of Zou et al. (1995) Mol. Gen Genetics 246:247-253).
The angiogenesis inhibitor compounds of the invention were tested for their ability to modulate human endothelial cell growth and for their ability to modulate the activity of MetAP2. The MetAP2 enzyme assay was performed essentially as described in Turk, B. et al. (1999) Chem. & Bio. 6: 823-833, the entire contents of which are incorporated herein by reference. […]

Setting [3] is: Bos taurus, BAEC, read-out: IC50 (pM), Baec Assay.
Where [4] appears, read: Homo sapiens, HUVEC, read-out: IC50 (pM), Huvec Assay.

SMILES strings stand for the structures. Like-named read-outs stand apart in the source and are kept apart here. Square brackets hold non-standard residues; d marks the D form. Peptide text beside a SMILES is read from it. * marks the point of attachment. X2 = CO[C@@H]1[C@H](OC(=O)*)CC[C@]2(CO2)[C@H]1[C@@]1(C)O[C@@H]1CC=C(C)C; X3 = CO[C@@H]1[C@H](OC(=O)*)CC[C@]2(CO2)[C@H]1[C@@]1(C)O[C@@H]1CCC(C)C; Sar = CNCC(=O)O

T1 sequence (P50579 whole entry): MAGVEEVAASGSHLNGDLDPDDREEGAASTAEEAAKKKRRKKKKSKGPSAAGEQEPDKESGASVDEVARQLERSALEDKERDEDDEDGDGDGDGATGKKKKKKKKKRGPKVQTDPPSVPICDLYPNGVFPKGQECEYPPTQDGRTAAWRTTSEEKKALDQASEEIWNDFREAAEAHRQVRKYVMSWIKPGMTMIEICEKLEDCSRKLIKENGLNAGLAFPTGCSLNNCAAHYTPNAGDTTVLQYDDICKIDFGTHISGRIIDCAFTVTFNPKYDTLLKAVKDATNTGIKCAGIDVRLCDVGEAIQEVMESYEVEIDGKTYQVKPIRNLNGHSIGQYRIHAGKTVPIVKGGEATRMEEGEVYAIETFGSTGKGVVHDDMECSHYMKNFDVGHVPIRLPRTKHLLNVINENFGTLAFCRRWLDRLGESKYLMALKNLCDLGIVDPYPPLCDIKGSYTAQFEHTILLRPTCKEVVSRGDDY

Turning to `CCC(C)C(NC(=O)O[C@@H]1CC[C@]2(CO2)[C@@H]([C@@]2(C)O[C@@H]2CC=C(C)C)[C@@H]1OC)C(=O)OC` (some centres unmarked) [Example 10], the IC50 in assay [1] (setting [3]) amounted to 179 pM.

Regarding `COC(=O)[C@H](NC(=O)O[C@@H]1CC[C@]2(CO2)[C@@H]([C@@]2(C)O[C@@H]2CC=C(C)C)[C@@H]1OC)C(C)(C)C` [Example 8, 2-{(3R, 4S, 5S, 6R )-5-Methoxy-4-[(2R, 3R)-2-methyl-3-(3-methyl-but-2-enyl)-oxiranyl]-1-oxa-spiro[2.5]oct-6-yloxycarbonylamino}-3,3-dimethyl-butyric acid methyl ester], the IC50 in assay [1] (setting [3]) is 313 pM.

Consider `CO[C@@H]1[C@H](OC(=O)N[C@@H](C(=O)O)C(C)C)CC[C@]2(CO2)[C@H]1[C@@]1(C)O[C@@H]1CC=C(C)C` [Example 24, 2-{(3R, 4S, 5S, 6R)-5-Methoxy-4-[(2R, 3R)-2-methyl-3-(3-methyl-but-2-enyl)-oxiranyl]-1-oxa-spiro[2.5]oct-6-yloxycarbonylamino}-3-methyl-butyric acid], for which, in assay [2] (setting [4]), the IC50 turned out to be 5440 pM.

In the case of `CO[C@@H]1[C@H](OC(=O)NCC(=O)N2CCC[C@H]2C(=O)N[C@@H](CC(C)C)C(=O)N(C)CC(=O)O)CC[C@]2(CO2)[C@H]1[C@@]1(C)O[C@@H]1CC=C(C)C` [Example 18, N-Carbamoyl (ID#26) (3R, 4S, 5S, 6R) 5-methoxy-4-[(2R,3R)2-methyl-3-(3methyl-but-2-enyl)-oxiranyl]-1-oxa-spiro[2.5]oct-6-yl ester] (X2-GPL[Sar]-OH), the 50% inhibitory concentration (IC50) in assay [2] (read-out: IC50, Huvec Assay) was greater than 100000 pM.

Regarding `COC(=O)[C@H](NC(=O)O[C@@H]1CC[C@]2(CO2)[C@@H]([C@@]2(C)O[C@@H]2CC=C(C)C)[C@@H]1OC)c1ccccc1` [Example 4, {(3R, 4S, 5S, 6R)-5-Methoxy-4-[(2R, 3R )-2-methyl-3-(3-methyl-but-2-enyl)-oxiranyl]-1-oxa-spiro[2.5]oct-6-yloxycarbonylamino}-phenyl-acetic acid methyl ester], the values for the concentration for half-maximal inhibition (IC50) in assay [2] (setting [4]) and in assay [1] (setting [3]) were 36 pM and 35 pM, respectively.

Regarding `CO[C@@H]1[C@H](OC(=O)N[C@@H](C(=O)N[C@@H](CO)C(N)=O)C(C)C)CC[C@]2(CO2)[C@H]1[C@@]1(C)O[C@@H]1CC=C(C)C` [Example 11], in assay [1] (Bos taurus, BAEC, read-out: IC50, Baec Assay), the IC50 was greater than 100000 pM.

With `CO[C@@H]1[C@H](OC(=O)NCC(=O)N[C@@H](CCCNC(=N)N)C(=O)NCC(=O)N[C@@H](CC(=O)O)C(N)=O)CC[C@]2(CO2)[C@H]1[C@@]1(C)O[C@@H]1CCC(C)C` [Example 15] (X3-GRGD-NH2), the IC50 in assay [2] (read-out: IC50, Huvec Assay) was greater than 1e+07 pM.

Turning to `CO[C@@H]1[C@H](OC(=O)NCC(=O)N[C@@H](CCCNC(=N)N)C(=O)NC[C@@H](O)N[C@@H](CC(=O)O)C(=O)N[C@@H](CO)C(=O)N2CCCC2C(N)=O)CC[C@]2(CO2)[C@H]1[C@@]1(C)O[C@@H]1CC=C(C)C` (some centres unmarked) [Example 13], the IC50 against MetAP2 was 2.9 nM; in assay [2] (read-out: IC50, Huvec Assay), greater than 1e+07 pM.

Take `CO[C@@H]1[C@H](OC(=O)N[C@@H](C(N)=O)C(C)C)CC[C@]2(CO2)[C@H]1[C@@]1(C)O[C@@H]1CCC(C)C` [Example 6, (1-Carbamoyl-2-methyl-propyl)-carbamic acid-(3R, 4S, 5S, 6R )-5-methoxy-4-[(2R, 3R)-2-methyl-3-(3-methyl-butyl)-oxiranyl]-1-oxa-spiro[2.5]oct-6-yl ester]: the IC50 in assay [1] (setting [3]) is 220 pM.

For `COC(=O)[C@H](NC(=O)O[C@@H]1CC[C@]2(CO2)[C@@H]([C@@]2(C)O[C@@H]2CC=C(C)C)[C@@H]1OC)C1CCCCC1` [Example 9, Cyclohexyl-2-{(3R, 4S, 5S, 6R )-5-Methoxy-4-[(2R, 3R)-2-methyl-3-(3-methyl-but-2-enyl)-oxiranyl]-1-oxa-spiro[2.5]oct-6-yloxycarbonylamino}-acetic acid methyl ester], the IC50 in assay [1] (setting [3]) was determined as 165 pM.

Turning to `CO[C@@H]1[C@H](OC(=O)NCC(=O)N2CCC[C@H]2C(=O)N[C@@H](CC(C)C)C(=O)NCC(=O)O)CC[C@]2(CO2)[C@H]1[C@@]1(C)O[C@@H]1CC=C(C)C` [Example 19, N-Carbamoyl (ID#27) (3R, 4S, 5S, 6R) 5-methoxy-4-[(2R,3R)2-methyl-3-(3-methyl-but-2-enyl)-oxiranyl]-1-oxa-spiro [2.5]oct-6-yl ester] (X2-GPLG-OH), the half-maximal inhibitory concentration (IC50) was greater than 100000 pM in assay [2] (read-out: IC50, Huvec Assay) and greater than 100000 pM in assay [1] (read-out: IC50, Baec Assay).
